The results in this text go back to patent publication US7109216B2 (priority 2001, dated 2006).

Data set [1] deals with human cannabinoid CB1 receptor (Homo sapiens, UniProt P21554). The data set can be described thus: biochemical. The following applies: [3H]CP-55,940 radioligand, CHO cell membranes stably transfected with human CB1. In kind it is binding. The arrangement: expressed in transfected cells; host or cells: Chinese hamster ovary (CHO) cells, membrane preparation. How it is done: After incubation of a freshly prepared cell membrane preparation with the [^3H]-ligand, with or without addition of compounds of the invention, separation of bound and free ligand was performed by filtration over glassfiber filters. Radioactivity on the filter was measured by liquid scintillation counting.
human cannabinoid CB1 receptor, sequence (P21554 whole entry): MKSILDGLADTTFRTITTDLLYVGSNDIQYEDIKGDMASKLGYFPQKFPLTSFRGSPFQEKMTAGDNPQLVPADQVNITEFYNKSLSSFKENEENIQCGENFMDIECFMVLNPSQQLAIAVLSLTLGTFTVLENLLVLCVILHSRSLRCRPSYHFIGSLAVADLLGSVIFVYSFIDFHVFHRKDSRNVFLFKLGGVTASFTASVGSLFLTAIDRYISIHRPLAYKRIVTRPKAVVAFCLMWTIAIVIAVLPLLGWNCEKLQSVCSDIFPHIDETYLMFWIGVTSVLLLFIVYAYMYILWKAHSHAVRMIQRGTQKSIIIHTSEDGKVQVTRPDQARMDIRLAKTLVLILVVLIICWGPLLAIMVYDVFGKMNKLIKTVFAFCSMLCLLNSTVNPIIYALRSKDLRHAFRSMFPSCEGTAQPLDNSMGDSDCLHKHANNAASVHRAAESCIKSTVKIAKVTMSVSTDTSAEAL

Where two headings read alike, the source gives them in different places.

The melting point is the temperature of the solid-liquid transition. In turn, `CCc1c(C(=O)NC2CCCCC2)nc(-c2cc(Cl)ccc2Cl)n1-c1ccccc1` showed a melting point of 198 to 199 °C.

Take `CCc1c(C(=O)NN2CCCCC2)nc(-c2cc(Cl)ccc2Cl)n1-c1ccccc1`: the melting point is 207 to 208 °C.

`Cc1cccnc1-c1nc(C(=O)NN2CCCCC2)c(C)n1-c1ccc(Cl)cc1`: the melting point is 211 to 213 °C.

On to `Cc1cccnc1-c1nc(C(=O)NC2CCCCC2)c(C)n1-c1ccc(Cl)cc1`, for which the melting point was in the range of 188 to 190 °C.

In turn, `O=C(NN1CCCC1)c1cn(-c2ccc(Br)cc2)c(-c2ccc(Cl)cc2Cl)n1` registered a melting point of 238 to 240 °C.

With `CCCCCNC(=O)c1cn(-c2ccc(Cl)cc2)c(-c2ccc(Cl)cc2OC)n1`, the melting point stood at 115 °C.

Molecule `CCN(CC)C(=O)c1cn(-c2ccc(Cl)cc2)c(-c2ccc(Cl)cc2Cl)n1` registered a melting point of 177 to 179 °C.

Regarding `O=C(NC12CC3CC(CC(C3)C1)C2)c1cn(-c2ccc(Cl)cc2)c(-c2ccc(Cl)cc2C(F)(F)F)n1`, the melting point is 288 °C.

`O=C(NCC(F)(F)F)c1cn(-c2ccc(Cl)cc2)c(-c2ccc(Cl)cc2C(F)(F)F)n1` registered a melting point of 149 °C.

As for `O=C(NC1CCCCC1)c1cn(-c2cccnc2)c(-c2ccc(Cl)cc2Cl)n1`, the melting point was determined as 195 °C.

Regarding `CCCCCNC(=O)c1cn(-c2cccnc2)c(-c2ccc(Cl)cc2Cl)n1`, the melting point is 117 °C.

Take `Cc1c(C(=O)NC2CCCCC2)nc(-c2ccc(Cl)cc2C(F)(F)F)n1-c1ccc(Cl)cc1`: the melting point was 212 °C.

The molecule `COc1cc(Cl)ccc1-c1nc(C(=O)NN2CCCCC2)c(C)n1-c1ccc(Cl)cc1` registered a melting point of more than 256 °C.

In turn, `COc1cc(Cl)ccc1-c1nc(C(=O)NC2CCCCC2)c(C)n1-c1ccc(Cl)cc1` had a melting point of 201 °C.

Regarding `Cc1c(C(=O)NC2CCCCC2)nc(-c2ccc(Cl)cc2Cl)n1-c1ccc(F)cc1`, the melting point lay within 229 to 230 °C.

`CCCCCNC(=O)c1nc(-c2ccccc2Cl)n(-c2cccc(F)c2)c1C`: the melting point lay in the range of 97 to 102 °C.

In turn, `CCc1c(C(=O)NC2CCCCC2)nc(-c2ccc(C)n2C)n1-c1ccccc1` returned a melting point of 195 to 196 °C.

With `O=C(Nc1ccccc1)c1cn(-c2ccc(Cl)cc2)c(-c2ccc(Cl)cc2Cl)n1` [Example 4, 1-(4-Chlorophenyl)-2-(2,4-dichlorophenyl)-N-phenyl-1H-imidazole-4-carboxamide], in data set [1] (read-out: hCB1 pKi (converted)), the Ki was 126 nM.

`Cc1c(C(=O)NOC(C)(C)C)nc(-c2ccc(Cl)cc2)n1-c1ccc(Cl)cc1Cl` [Example 11, N-(t-Butoxy)-2-(4-chlorophenyl)-1-(2,4-dichlorophenyl)-5-methyl-1H-imidazole-4-carboxamide]: in data set [1] (read-out: hCB1 pKi (converted)), the Ki is 501 nM.

`COc1cc(Cl)ccc1-c1nc(C(=O)NN2CCCCC2)cn1-c1ccc(Cl)cc1` [Example 28, 1-(4-Chlorophenyl)-2-(2-methoxy-4-chlorophenyl)-N-(piperidin-1-yl)-1H-imidazole-4-carboxamide] had a melting point of 220 °C. In data set [1] (hCB1 pKi), this molecule showed a Ki of 63.1 nM.

In turn, `O=C(NN1CCCCC1)c1cn(-c2ccc(Cl)cc2)c(-c2ccc(Cl)cc2F)n1` [Example 30, 1-(4-Chlorophenyl)-2-(2-fluoro-4-chlorophenyl)-N-(piperidin-1-yl)-1H-imidazole-4-carboxamide] displayed a melting point of 217 to 218 °C. In addition, the Ki in data set [1] (hCB1 pKi) is 25.1 nM.

Molecule `O=C(NN1CCCCC1)c1cn(-c2cccnc2)c(-c2ccc(Cl)cc2Cl)n1` [Example 42, 2-(2,4-Dichlorophenyl)-1-(pyridin-3-yl)-N-(piperidin-1-yl)-1H-imidazole-4-carboxamide] returned a melting point of 165 to 170 °C.

`Cc1c(C(=O)N(C)C)nc(-c2ccc(Cl)cc2Cl)n1-c1ccc(Cl)cc1` [Example 50, 1-(4-Chlorophenyl)-2-(2,4-dichlorophenyl)-N,N,5-trimethyl-1H-imidazole-4-carboxamide] gave a Ki in data set [1] (hCB1 pKi) of 5.01 nM.

In the case of `Cc1c(C(=O)NN2CCCCCC2)nc(-c2ccc(Cl)cc2Cl)n1-c1ccc(Cl)cn1` [Example 53, N-(1-Azepanyl)-1-(5-Chloropyridin-2-yl)-2-(2,4-dichlorophenyl)-5-methyl-1H-imidazole-4-carboxamide], the Ki in data set [1] (hCB1 pKi) is 50.1 nM.

`Cc1c(C(=O)NC2CCCCC2)nc(-c2ccc(Cl)cc2Cl)n1-c1ccc(Cl)cn1` [Example 54, 1-(5-Chloropyridin-2-yl)-N-cyclohexyl-2-(2,4-dichlorophenyl)-5-methyl-1H-imidazole-4-carboxamide]: the Ki in data set [1] (hCB1 pKi) is 100 nM.

In the case of `CCCCCNC(=O)c1nc(-c2ccc(Cl)cc2Cl)n(-c2ccc(Cl)cn2)c1C` [Example 55, 1-(5-Chloropyridin-2-yl)-2-(2,4-dichlorophenyl)-5-methyl-N-(n-pentyl)-1H-imidazole-4-carboxamide], the Ki in data set [1] (hCB1 pKi) was 50.1 nM.

Regarding `CCCCCNC(=O)c1nc(-c2ccc(Cl)cc2Cl)n(-c2ccc(Cl)cn2)c1CC` [Example 79, 1-(5-Chloropyridin-2-yl)-2-(2,4-dichlorophenyl)-5-ethyl-N-(n-pentyl)-1H-imidazole-4-carboxamide], in data set [1] (hCB1 pKi), the Ki was 15.8 nM.

Consider `Cc1c(C(=O)C2NCCc3ccccc32)nc(-c2ccc(Cl)cc2Cl)n1-c1ccc(Cl)cc1` (stereo not drawn) [Example 88, 1-{[1-(4-Chlorophenyl)-2-(2,4-dichlorophenyl)-5-methyl-1H-imidazol-4-yl]carbonyl}-1,2,3,4-tetrahydroisoquinoline], for which the melting point was in the range of 143 to 146 °C.

In turn, `Cc1c(C(=O)NC2CC3CCC2C3)nc(-c2ccc(Cl)cc2Cl)n1-c1ccc(Cl)cc1` (stereo not drawn) [Example 89, N-(Endo-bicyclo[2.2.1]hept-2-yl)-1-(4-chlorophenyl)-2-(2,4-dichlorophenyl)-5-methyl-1H-imidazole-4-carboxamide] showed a Ki in data set [1] (hCB1 pKi) of 6.31 nM.

In data set [1] (hCB1 pKi), `CCCCCNC(=O)c1nc(-c2ccc(Cl)cc2Cl)n(-c2ccc(Cl)cc2)c1C` [Example 91, 1-(4-Chlorophenyl)-2-(2,4-dichlorophenyl)-5-methyl-N-(n-pentyl)-1H-imidazole-4-carboxamide] showed a Ki of 31.6 nM.

Take `CCc1c(C(=O)NC2CCCCC2)nc(-c2ccc(Cl)cc2Cl)n1-c1cc(F)ccc1F` [Example 97, N-Cyclohexyl-2-(2,4-dichlorophenyl)-1-(2,5-difluorophenyl)-5-ethyl-1H-imidazole-4-carboxamide]: the melting point fell in the range of 144 to 146 °C.

The molecule `Cc1c(C(=O)NC2CCCCC2)nc(-c2ccc(Cl)cc2Cl)n1-c1cc(F)ccc1F` [Example 98, N-Cyclohexyl-2-(2,4-dichlorophenyl)-1-(2,5-difluorophenyl)-5-methyl-1H-imidazole-4-carboxamide] showed a melting point of 206 to 208 °C.

As to `CS(=O)(=O)c1c(C(=O)NC2CCCCC2)nc(-c2ccc(Cl)cc2Cl)n1-c1ccc(Cl)cc1` [Example 119, 1-(4-chlorophenyl)-2-(2,4-dichlorophenyl)-5-methylsulfonyl-N-(cyclohexyl)-1H-imidazole-4-carboxamide], in data set [1] (hCB1 pKi), the Ki is 63.1 nM.

As to `CSc1c(C(=O)NC2CCCCC2)nc(-c2ccc(Cl)cc2Cl)n1-c1ccc(Cl)cc1` [Example 121, 1-(4-chlorophenyl)-2-(2,4-dichlorophenyl)-5-methylsulfanyl-N-(cyclohexyl)-1H-imidazole-4-carboxamide], in data set [1] (hCB1 pKi), the Ki was 63.1 nM.
